# How the values were obtained:
# Phormia regina = test: whole plant or invertebrate; conditions: for LD50: Phormia regina, read-out: Topical LD50, Phormia regina, Alone; for LD50 / Topical LD50, Phormia regina, with pb: topical; for Topical LD50, Phormia regina, with pb: synergized with piperonyl butoxide
# Method: The compounds of the present invention were tested for insecticidal activity by standard methods, and compared with the insecticidal activities of DDT and symmetrical analogs of DDT, such methoxychlor. Toxicological methods for the determination of the topical LD50 values to adult female SNAIDM and RSP houseflies, Musca domestica L. and to Phormia regina, and LC50 values to Culex pipiens quinquefasciatus Say, and Anopheles albimanus Weid mosquitoes were described by Metcalf el al., 44 Bull. World Health Org. […] The methods for evaluation of metabolism by mouse liver homogenate and by female RSP housefly and salt-marsh caterpillar larvae Estigmene acrea Drury, were described by Kapoor et al., 18 J. Agr. […] The techniques for model eocsystem evluation were described by Metcalf et al., 5 J. Environ. Sci. Tech.
# (§1) Since piperonyl butoxide serves to block the action of MFO, the synergized LD50 values express the intrinsic toxicity of the compounds. With the detoxifying action of MFO enzymes blocked, the intrinsic toxicity of the compounds can thus be measured.
# Musca domestica Snaidm = test: Topical LD50 to adult female SNAIDM houseflies; conditions: for LD50: Musca domestica, read-out: Topical LD50, Musca domestica Snaidm, Alone; for LD50 / Topical LD50, Musca domestica Snaidm, with pb: topical; for Topical LD50, Musca domestica Snaidm, with pb: SNAIDM strain, synergized with piperonyl butoxide; for SR, Musca domestica Snaidm: synergistic ratio: LD50 alone/LD50 synergized with piperonyl butoxide
# Method: (§2) The compounds of the present invention were tested for insecticidal activity by standard methods, and compared with the insecticidal activities of DDT and symmetrical analogs of DDT, such methoxychlor. Toxicological methods for the determination of the topical LD50 values to adult female SNAIDM and RSP houseflies, Musca domestica L. and to Phormia regina, and LC50 values to Culex pipiens quinquefasciatus Say, and Anopheles albimanus Weid mosquitoes were described by Metcalf el al., 44 Bull. World Health Org. 363 (1971). The methods for evaluation of metabolism by mouse liver homogenate and by female RSP housefly and salt-marsh caterpillar larvae Estigmene acrea Drury, were described by Kapoor et al., 18 J. Agr. Food Chem. 1145 (1970). The techniques for model eocsystem evluation were described by Metcalf et al., 5 J. Environ. Sci. Tech. 709 (1971).
# as §1
# Musca domestica Rsp = test: Topical LD50 to adult female RSP houseflies; conditions: for LD50: Musca domestica, read-out: Topical LD50, Musca domestica Rsp, Alone; for LD50 / Topical LD50, Musca domestica Rsp, with pb: topical; for Topical LD50, Musca domestica Rsp, with pb: RSP strain, synergized with piperonyl butoxide; for SR, Musca domestica Rsp: synergistic ratio: LD50 alone/LD50 synergized with piperonyl butoxide
# Method: as §2, §1
# [1] = test system: Anopheles albimanus larvae; test: LC50 to Anopheles albimanus larvae; format: in vivo, Anopheles albimanus Weid
# Text: (§3) World Health Org. 363 (1971). […] Food Chem. 1145 (1970). […] Sci. Tech. 709 (1971). The results are detailed in Table II. ##SPC1##
# Culex fatigans larvae = test: LC50 to Culex fatigans larvae; format: in vivo, Culex pipiens quinquefasciatus Say
# Text: as §3
# [2] = test system: Musca domestica (SNAIDM and RSP strains), Phormia regina, Culex fatigans and Anopheles albimanus; test: Insecticidal activity over the test insects (Table II, summarised in words); format: in vivo; conditions: for insecticidal effectiveness / toxicity (in words): overall, test insects of Table II
# Method: as §2, §1
Structure (SMILES),LD50 (Phormia regina),"Topical LD50, Phormia regina, with pb (Phormia regina)",LD50 (Musca domestica Snaidm),"Topical LD50, Musca domestica Snaidm, with pb (Musca domestica Snaidm)","SR, Musca domestica Snaidm (Musca domestica Snaidm)",LD50 (Musca domestica Rsp),"Topical LD50, Musca domestica Rsp, with pb (Musca domestica Rsp)","SR, Musca domestica Rsp (Musca domestica Rsp)",LC50 Anopheles albimanus larvae [1],LC50 Culex fatigans larvae (Culex fatigans larvae),insecticidal effectiveness / toxicity (in words) [2],"SR, Phormia regina (Phormia regina; synergistic ratio: LD50 alone/LD50 synergized with piperonyl butoxide)",SR values (in words) ([2]; synergism by piperonyl butoxide)
COc1ccc(C(Nc2ccc(C)cc2C)C(Cl)(Cl)Cl)cc1 (stereo not drawn) [XXIV],97.5 mg/kg,25.0 μg per g,95 mg/kg,14.0 μg per g,6.8,140 mg/kg,29.0 μg per g,4.8,0.080 ppm,0.28 ppm,Toxicity was also substantially decreased,–,–
"CCOc1ccc(C(Nc2ccc(Cl)cc2)C(Cl)(Cl)Cl)cc1 (stereo not drawn) [VII, α-trichloromethyl1p-ethoxybenzyl-p-chloroaniline]",24.5 mg/kg,20.0 μg per g,19 mg/kg,10.5 μg per g,1.8,31 mg/kg,13.5 μg per g,2.3,0.060 ppm,0.032 ppm,only slightly less active than compound XI,–,–
CN(C)c1ccc(C(Nc2ccc([N+](=O)[O-])cc2)C(Cl)(Cl)Cl)cc1 (stereo not drawn) [XXVI],> 250 mg/kg,> 250 μg per g,> 500 mg/kg,120 μg per g,> 4,> 500 mg/kg,500 μg per g,–,> 1.0 ppm,0.38 ppm,Toxicity was also substantially decreased,–,–
CCOc1ccc(C(Nc2ccccc2OCC)C(Cl)(Cl)Cl)cc1 (stereo not drawn) [XXI],> 250 mg/kg,> 250 μg per g,> 500 mg/kg,110 μg per g,> 5,> 500 mg/kg,140 μg per g,> 3.5,> 1.0 ppm,> 1.0 ppm,Toxicity was greatly decreased,–,–
COc1ccc(NC(c2ccc(C)cc2)C(Cl)(Cl)Cl)cc1 (stereo not drawn) [Compound X],135 mg/kg,14.0 μg per g,48 mg/kg,8.5 μg per g,5.6,65 mg/kg,7.5 μg per g,8.7,0.48 ppm,0.54 ppm,–,9.6,higher SR values
COc1ccc(C(Nc2ccc(C3CCCCC3)cc2)C(Cl)(Cl)Cl)cc1 (stereo not drawn) [XXVII],> 250 mg/kg,112.5 μg per g,> 500 mg/kg,48 μg per g,> 10,> 500 mg/kg,165 μg per g,> 3,> 1.0 ppm,1.0 ppm,Toxicity was also substantially decreased,–,–
CCOc1ccc(NC(c2ccccc2OCC)C(Cl)(Cl)Cl)cc1 (stereo not drawn) [XX],> 250 mg/kg,> 250 μg per g,> 500 mg/kg,500 μg per g,–,> 500 mg/kg,> 500 μg per g,–,> 1.0 ppm,> 1.0 ppm,Toxicity was greatly decreased,–,–
